A word on the IC50: it is the concentration needed to halve the response being measured.

Experimental findings from US20240208956A1, “1,3,4-OXADIAZOLE THIOCARBONYL COMPOUNDS AS HISTONE DEACETYLASE 6 INHIBITOR, AND PHARMACEUTICAL COMPOSITION COMPRISING THE SAME” (CHONG KUN DANG PHARMACEUTICAL CORP., priority 2021, published 2024) are described below.

One assay concerns the target HDAC6 human recombinant (Homo sapiens (Human), UniProt Q9UBN7). The assay can be described thus: HDAC enzyme activity inhibition (in vitro), HDAC6 fluorimetric assay. In kind it is biochemical. Conditions: samples at 0.1-1000 nM; 37° C. 60 minutes; fluorescence Ex 390 nm, Em 460 nm. On the procedure: Confirmation of HDAC Enzyme Activity Inhibition (In Vitro)
(§1) An HDAC enzyme inhibitory capacity of test material was measured by using HDAC1 Fluorimetric Drug Discovery Assay Kit (Enzolifesciences: BML-AK511) and HDAC6 human recombinant (Calbiochem: 382180). For a HDAC1 assay, samples were treated at a concentration of 100 nM, 1000 nM and 10000 nM. For an HDAC6 assay, samples were treated at a concentration of 0.1 nM, 1 nM, 10 nM, 100 nM and 1000 nM. After the sample treatment, a reaction was continued at 37° C. for 60 minutes, treated with a developer, and subjected to reaction at 37° C. for 30 minutes, after which fluorescence intensity (Ex 390 nm, Em 460 nm) was measured by using FlexStation3 (Molecular device). For final result values, each […] value was calculated with GraphPad Prism 4.0 program.

The next assay has as its target HDAC1 (Homo sapiens (Human), UniProt Q13547). The assay can be described thus: HDAC enzyme activity inhibition (in vitro), HDAC1 Fluorimetric Drug Discovery Assay Kit. In kind it is biochemical. To be noted: samples at 100, 1000 and 10000 nM; 37° C. 60 minutes; fluorescence Ex 390 nm, Em 460 nm. The procedure: Experimental Example 1. Confirmation of HDAC Enzyme Activity Inhibition (In Vitro)
as §1

Sequence of HDAC6 human recombinant (Q9UBN7 whole entry): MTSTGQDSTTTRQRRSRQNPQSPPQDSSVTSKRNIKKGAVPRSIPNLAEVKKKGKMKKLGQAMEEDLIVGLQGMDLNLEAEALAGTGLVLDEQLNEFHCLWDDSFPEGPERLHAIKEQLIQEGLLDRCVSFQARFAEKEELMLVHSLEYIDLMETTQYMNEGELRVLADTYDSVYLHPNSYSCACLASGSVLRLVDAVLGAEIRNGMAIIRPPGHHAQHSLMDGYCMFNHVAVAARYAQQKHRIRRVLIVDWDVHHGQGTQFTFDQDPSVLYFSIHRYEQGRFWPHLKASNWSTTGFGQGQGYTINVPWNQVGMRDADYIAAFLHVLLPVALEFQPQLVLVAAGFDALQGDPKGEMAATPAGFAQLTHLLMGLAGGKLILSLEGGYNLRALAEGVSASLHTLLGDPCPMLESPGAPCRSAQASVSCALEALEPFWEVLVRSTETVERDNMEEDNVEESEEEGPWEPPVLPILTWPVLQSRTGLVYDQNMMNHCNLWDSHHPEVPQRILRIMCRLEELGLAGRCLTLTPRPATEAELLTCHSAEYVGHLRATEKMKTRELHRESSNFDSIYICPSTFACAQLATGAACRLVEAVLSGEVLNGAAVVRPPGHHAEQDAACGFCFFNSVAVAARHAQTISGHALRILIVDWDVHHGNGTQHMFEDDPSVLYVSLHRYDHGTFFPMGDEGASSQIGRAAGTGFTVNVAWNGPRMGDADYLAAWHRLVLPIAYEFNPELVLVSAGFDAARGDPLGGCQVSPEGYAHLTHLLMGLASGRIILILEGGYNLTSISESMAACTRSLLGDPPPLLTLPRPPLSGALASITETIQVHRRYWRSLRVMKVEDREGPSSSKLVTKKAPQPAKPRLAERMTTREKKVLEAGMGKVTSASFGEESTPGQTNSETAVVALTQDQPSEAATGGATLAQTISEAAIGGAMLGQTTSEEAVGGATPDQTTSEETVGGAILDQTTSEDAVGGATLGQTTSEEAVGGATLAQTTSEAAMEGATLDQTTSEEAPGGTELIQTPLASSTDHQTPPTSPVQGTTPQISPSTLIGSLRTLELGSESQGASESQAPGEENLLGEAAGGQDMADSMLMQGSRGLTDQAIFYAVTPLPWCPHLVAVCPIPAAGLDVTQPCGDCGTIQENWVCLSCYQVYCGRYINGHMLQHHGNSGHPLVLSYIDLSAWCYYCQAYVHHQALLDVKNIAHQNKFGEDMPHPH
Sequence of HDAC1 (Q13547 whole entry): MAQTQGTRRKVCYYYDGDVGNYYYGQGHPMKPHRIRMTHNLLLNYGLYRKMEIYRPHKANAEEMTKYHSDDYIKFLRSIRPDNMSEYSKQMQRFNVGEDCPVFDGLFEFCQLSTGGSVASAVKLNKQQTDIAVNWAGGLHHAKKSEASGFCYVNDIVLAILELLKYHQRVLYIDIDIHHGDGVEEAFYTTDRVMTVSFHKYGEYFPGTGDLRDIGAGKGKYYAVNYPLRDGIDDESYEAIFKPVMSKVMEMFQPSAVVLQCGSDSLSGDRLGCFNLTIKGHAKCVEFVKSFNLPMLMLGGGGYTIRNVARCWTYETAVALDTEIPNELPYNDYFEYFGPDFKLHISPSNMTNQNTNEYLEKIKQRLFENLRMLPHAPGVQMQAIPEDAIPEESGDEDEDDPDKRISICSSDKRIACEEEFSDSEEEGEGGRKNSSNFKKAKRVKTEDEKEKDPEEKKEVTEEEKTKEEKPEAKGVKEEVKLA

With `Fc1ccc(N(Cc2ccc(-c3nnc(C(F)F)o3)cc2)C(=S)N2CC3(C2)CN(C2COC2)C3)cc1Cl` [Compound 27, N-(3-chloro-4-fluorophenyl)-N-(4-(5-(difluoromethyl)-1,3,4-oxadiazol-2-yl)benzyl)-6-(oxetan-3-yl)-2,6-diazaspiro[3.3]heptan-2-carbothioamide], the results for the IC50 on HDAC6 human recombinant and against HDAC1 were 112 nM and greater than 10000 nM, respectively. As for `Fc1ccc(N(Cc2ccc(-c3nnc(C(F)F)o3)cc2F)C(=S)N2CC3(C2)CN(C2COC2)C3)cc1F` [Compound 34, N-(4-(5-(difluoromethyl)-1,3,4-oxadiazol-2-yl)-2-fluorobenzyl)-N-(3,4-difluorophenyl)-6-(oxetan-3-yl)-2,6-diazaspiro[3.3]heptan-2-carbothioamide], the IC50 at HDAC6 human recombinant is 47 nM; at HDAC1, greater than 10000 nM. With `FC(F)c1nnc(-c2ccc(CN(C(=S)N3CCOCC3)c3ccccc3)nc2)o1` [Compound 2, N-((5-(5-(difluoromethyl)-1,3,4-oxadiazol-2-yl)pyridin-2-yl)methyl)-N-phenylmorpholin-4-carbothioamide], the half-maximal inhibitory concentration (IC50) on HDAC6 human recombinant was 66 nM; on HDAC1, greater than 10000 nM. With `FC(F)c1nnc(-c2ccc(CN(C(=S)N3CCOCC3)c3ccccc3)cc2)o1` [Compound 3, N-(4-(5-(difluoromethyl)-1,3,4-oxadiazol-2-yl)benzyl)-N-phenylmorpholin-4-carbothioamide], the figures for the IC50 on HDAC6 human recombinant and against HDAC1 were 37 nM and greater than 10000 nM, respectively. Regarding `Fc1cccc(N(Cc2ccc(-c3nnc(C(F)F)o3)cc2F)C(=S)N2CC3(C2)CN(C2COC2)C3)c1` [Compound 38, N-(4-(5-(difluoromethyl)-1,3,4-oxadiazol-2-yl)-2-fluorobenzyl)-N-(3-fluorophenyl)-6-(oxetan-3-yl)-2,6-diazaspiro[3.3]heptan-2-carbothioamide], the IC50 at HDAC6 human recombinant is 51 nM; on HDAC1 it was greater than 10000 nM. On the same counts, the results for `CN1CC2(C1)CN(C(=S)N(Cc1ccc(-c3nnc(C(F)F)o3)cc1F)c1ccc(F)c(F)c1)C2` [Compound 13, N-(4-(5-(difluoromethyl)-1,3,4-oxadiazol-2-yl)-2-fluorobenzyl)-N-(3,4-difluorophenyl)-6-methyl-2,6-diazaspiro[3.3]heptan-2-carbothioamide] are 76 nM and greater than 10000 nM. In the case of `CN1CC2(C1)CN(C(=S)N(Cc1ccc(-c3nnc(C(F)F)o3)cc1)c1ccc(F)c(F)c1)C2` [Compound 30, N-(4-(5-(difluoromethyl)-1,3,4-oxadiazol-2-yl)benzyl)-N-(3,4-difluorophenyl)-6-methyl-2,6-diazaspiro[3.3]heptan-2-carbothioamide], the IC50 at HDAC6 human recombinant is 24 nM; against HDAC1, greater than 10000 nM. Consider `Fc1ccc(N(Cc2ccc(-c3nnc(C(F)F)o3)cc2)C(=S)N2CC3(C2)CN(C2COC2)C3)cc1F` [Compound 32, N-(4-(5-(difluoromethyl)-1,3,4-oxadiazol-2-yl)benzyl)-N-(3,4-difluorophenyl)-6-(oxetan-3-yl)-2,6-diazaspiro[3.3]heptan-2-carbothioamide], for which the IC50 is 45 nM on HDAC6 human recombinant and greater than 10000 nM against HDAC1.

In the case of `CN1CC2(C1)CN(C(=S)N(Cc1ccc(-c3nnc(C(F)F)o3)cc1)c1cccc(F)c1)C2` [Compound 14, N-(4-(5-(difluoromethyl)-1,3,4-oxadiazol-2-yl)benzyl)-N-(3-fluorophenyl)-6-methyl-2,6-diazaspiro[3.3]heptan-2-carbothioamide], the IC50 on HDAC6 human recombinant was 39 nM; against HDAC1, greater than 10000 nM. Turning to `CN1CC2(C1)CN(C(=S)N(Cc1ccc(-c3nnc(C(F)F)o3)cc1F)c1ccc(F)c(Cl)c1)C2` [Compound 25, N-(3-chloro-4-fluorophenyl)-N-(4-(5-(difluoromethyl)-1,3,4-oxadiazol-2-yl)-2-fluorobenzyl)-6-methyl-2,6-diazaspiro[3.3]heptan-2-carbothioamide], the IC50 is 46 nM at HDAC6 human recombinant and greater than 10000 nM at HDAC1. In the case of `CC(C)N1CC2(CN(C(=S)N(Cc3ccc(-c4nnc(C(F)F)o4)cc3F)c3ccc(F)cc3)C2)C1` [Compound 18, N-(4-(5-(difluoromethyl)-1,3,4-oxadiazol-2-yl)-2-fluorobenzyl)-N-(4-fluorophenyl)-6-isopropyl-2,6-diazaspiro[3.3]heptan-2-carbothioamide], the IC50 at HDAC6 human recombinant is 61 nM; against HDAC1, greater than 10000 nM. Take `CC(C)N1CC2(CN(C(=S)N(Cc3ccc(-c4nnc(C(F)F)o4)cc3)c3ccc(F)c(Cl)c3)C2)C1` [Compound 29, N-(3-chloro-4-fluorophenyl)-N-(4-(5-(difluoromethyl)-1,3,4-oxadiazol-2-yl)benzyl)-6-isopropyl-2,6-diazaspiro[3.3]heptan-2-carbothioamide]: the IC50 on HDAC6 human recombinant is 70 nM; at HDAC1, greater than 10000 nM.

Regarding `Fc1cc(-c2nnc(C(F)F)o2)ccc1CN(C(=S)N1CC2(C1)CN(C1COC1)C2)c1ccccc1` [Compound 11, N-(4-(5-(difluoromethyl)-1,3,4-oxadiazol-2-yl)-2-fluorobenzyl)-6-(oxetan-3-yl)-N-phenyl-2,6-diazaspiro[3.3]heptan-2-carbothioamide], the figures for the IC50 on HDAC6 human recombinant and at HDAC1 were 50 nM and greater than 10000 nM, respectively.

Regarding `CC(C)N1CC2(CN(C(=S)N(Cc3ccc(-c4nnc(C(F)F)o4)cc3)c3ccc(F)c(F)c3)C2)C1` [Compound 31, N-(4-(5-(difluoromethyl)-1,3,4-oxadiazol-2-yl)benzyl)-N-(3,4-difluorophenyl)-6-isopropyl-2,6-diazaspiro[3.3]heptan-2-carbothioamide], the results for the IC50 on HDAC6 human recombinant and at HDAC1 were 35 nM and greater than 10000 nM, respectively. For `CC(C)N1CC2(CN(C(=S)N(Cc3ccc(-c4nnc(C(F)F)o4)cc3)c3cccc(F)c3)C2)C1` [Compound 16, N-(4-(5-(difluoromethyl)-1,3,4-oxadiazol-2-yl)benzyl)-N-(3-fluorophenyl)-6-isopropyl-2,6-diazaspiro[3.3]heptan-2-carbothioamide], the IC50 at HDAC6 human recombinant is 63 nM; against HDAC1, greater than 10000 nM. Regarding `Fc1ccc(N(Cc2ccc(-c3nnc(C(F)F)o3)cc2F)C(=S)N2CC3(COC3)C2)cc1F` [Compound 35, N-(4-(5-(difluoromethyl)-1,3,4-oxadiazol-2-yl)-2-fluorobenzyl)-N-(3,4-difluorophenyl)-2-oxa-6-azaspiro[3.3]heptan-6-carbothioamide], at HDAC1, the IC50 was greater than 10000 nM.

At HDAC1, `Fc1cc(-c2nnc(C(F)F)o2)ccc1CN(C(=S)N1CCOCC1)c1ccccc1` [Compound 1, N-(4-(5-(difluoromethyl)-1,3,4-oxadiazol-2-yl)-2-fluorobenzyl)-N-phenylmorpholin-4-carbothioamide] yielded an IC50 greater than 10000 nM.

In turn, `CN1CCN(C(=S)N(Cc2ccc(-c3nnc(C(F)F)o3)cc2F)c2ccccc2)CC1` [Compound 7, N-(4-(5-(difluoromethyl)-1,3,4-oxadiazol-2-yl)-2-fluorobenzyl)-4-methyl-N-phenylpiperazin-1-carbothioamide] had an IC50 against HDAC1 greater than 10000 nM.

For `CN1C[C@@H]2C[C@H]1CN2C(=S)N(Cc1ccc(-c2nnc(C(F)F)o2)cc1F)c1ccc(F)c(F)c1` [Compound 42, (1S,4S)—N-(4-(5-(difluoromethyl)-1,3,4-oxadiazol-2-yl)-2-fluorobenzyl)-N-(3,4-difluorophenyl)-5-methyl-2,5-diazabicyclo[2.2.1]heptan-2-carbothioamide], on HDAC1, the IC50 is greater than 10000 nM.
